The text below walks through data of ChEMBL document CHEMBL1134013, “Synthesis and biological evaluation of benzo[b]naphthyridones, a series of new topical antibacterial agents” (2001).

The subject of assay [1] is Staphylococcus aureus. Description: Minimum inhibitory concentration against Quinolone Resistant Staphylococcus aureus LF11C128B Strain. It is filed as functional.
Assay [2] concerns Staphylococcus hominis. Description: Minimum inhibitory concentration against Quinolone sensitive Staphylococcus hominis IP8203 Strain. It is filed as functional.

In brackets after ≈: the same amount, converted by molar mass.

As to `Cn1cc(C(=O)O)c(=O)c2cc3cc(F)c(N4CCCCCCC4)cc3nc21`, the MIC in assay [1] and in assay [2] was 1 µg/mL (≈ 2.61 µM) throughout.

As for `CSCc1cccc(N2CCN(c3cc4nc5c(cc4cc3F)c(=O)c(C(=O)O)cn5C)CC2)c1`, the MIC in assay [1] and in assay [2] was 4 µg/mL (≈ 8.12 µM) in each case. On to `Cn1cc(C(=O)O)c(=O)c2cc3cc(F)c(N4CCN(Cc5ccc(F)cc5)CC4)cc3nc21`, for which the MIC turned out to be 1 µg/mL (≈ 2.15 µM) in assay [1] and 0.5 µg/mL (≈ 1.08 µM) in assay [2].

In the case of `C/C(=C\C(=O)OCCCCCCCCC(=O)[O-])C[C@@H]1OC[C@H](C[C@@H]2O[C@H]2[C@@H](C)[C@H](C)O)[C@@H](O)[C@H]1O.C/C(=C\C(=O)OCCCCCCCCC(=O)[O-])C[C@@H]1OC[C@H](C[C@@H]2O[C@H]2[C@@H](C)[C@H](C)O)[C@@H](O)[C@H]1O.[Ca+2]`, the MIC in assay [1] and in assay [2] was 0.5 µg/mL in each case. In the case of `C[N+](C)(C)CCO.Cn1cc(C(=O)[O-])c(=O)c2cc3cc(F)c(N4CCN(c5ccc(F)cc5)CC4)cc3nc21`, the MIC in assay [1] was determined as 0.5 µg/mL; in assay [2] it was 0.25 µg/mL. As for `Cn1cc(C(=O)O)c(=O)c2cc3cc(F)c(NC4CCCCC4)cc3nc21`, the MIC in assay [1] and in assay [2] was 1 µg/mL (≈ 2.71 µM) in each case. Take `CCn1cc(C(=O)O)c(=O)c2cc(F)c(N3CCN(C)CC3)cc21` [PEFLOXACIN]: the MIC in assay [2] was found to be 0.5 µg/mL (≈ 1.5 µM).
